According to patent US20070135499A1 (Aerie Pharmaceuticals, Inc., priority 2005, published 2007):

What was measured:
GRK-3 = biological target: T1, GRK-3 (Homo sapiens, UniProt P35626); assay: luciferase-based biochemical kinase inhibition assay, GRK-3; details: same luciferase assay; read-out: GRK-3 inhibition, Ki class
T1 sequence (P35626 1-688): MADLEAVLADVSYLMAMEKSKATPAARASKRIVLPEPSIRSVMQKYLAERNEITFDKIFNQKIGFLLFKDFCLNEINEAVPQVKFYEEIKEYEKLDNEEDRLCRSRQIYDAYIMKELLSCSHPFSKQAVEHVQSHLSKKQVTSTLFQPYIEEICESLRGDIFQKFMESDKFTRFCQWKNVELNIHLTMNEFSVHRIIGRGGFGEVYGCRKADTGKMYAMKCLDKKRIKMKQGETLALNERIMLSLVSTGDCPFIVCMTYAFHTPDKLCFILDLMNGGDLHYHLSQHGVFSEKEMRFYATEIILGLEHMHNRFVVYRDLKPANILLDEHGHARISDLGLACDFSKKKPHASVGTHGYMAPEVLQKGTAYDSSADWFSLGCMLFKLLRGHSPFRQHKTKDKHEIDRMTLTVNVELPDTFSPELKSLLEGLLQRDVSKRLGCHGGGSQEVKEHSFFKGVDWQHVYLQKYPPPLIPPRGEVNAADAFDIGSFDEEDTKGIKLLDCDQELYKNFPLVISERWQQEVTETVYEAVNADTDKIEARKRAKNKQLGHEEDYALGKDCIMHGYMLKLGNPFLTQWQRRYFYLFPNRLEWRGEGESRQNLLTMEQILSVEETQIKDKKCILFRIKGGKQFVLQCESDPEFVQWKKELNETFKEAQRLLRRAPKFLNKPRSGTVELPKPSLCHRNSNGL
Procedure: (§1) The inhibition of G-protein-coupled receptor kinases including hGRK-2 was determined for the hydrazide compounds using a biochemical assay. The inhibition of GRK-3, GRK-5 and GRK-6 was also determined using the same assay for some of the hydrazide derivatives.
(§2) The protein kinase inhibition was determined using a biochemical assay utilizing the light emission of a luciferase reaction. The luciferase-based assay operates on the following reaction principles: [drawing 10]
(§3) An inhibitor of GRK-2 will increase in the amount of ATP in solution, as shown. Thus, an inhibitor of GRK-2 will drive the luciferase reaction to the right, resulting in more light emitted. The amount of light emitted is proportional to the inhibition resulting from the GRK-2 inhibitor. The luciferase-based assay was also used to test some of the hydrazides for the inhibition properties towards other kinases.

hGRK-2 = biological target: T2, hGRK-2 (Homo sapiens, UniProt P25098); assay: luciferase-based (Kinase-Glo) biochemical kinase inhibition assay, hGRK-2; details: luciferase assay, casein substrate, 10 μM ATP; read-out: GRK-2 inhibition, Ki class
T2 sequence (P25098 1-689): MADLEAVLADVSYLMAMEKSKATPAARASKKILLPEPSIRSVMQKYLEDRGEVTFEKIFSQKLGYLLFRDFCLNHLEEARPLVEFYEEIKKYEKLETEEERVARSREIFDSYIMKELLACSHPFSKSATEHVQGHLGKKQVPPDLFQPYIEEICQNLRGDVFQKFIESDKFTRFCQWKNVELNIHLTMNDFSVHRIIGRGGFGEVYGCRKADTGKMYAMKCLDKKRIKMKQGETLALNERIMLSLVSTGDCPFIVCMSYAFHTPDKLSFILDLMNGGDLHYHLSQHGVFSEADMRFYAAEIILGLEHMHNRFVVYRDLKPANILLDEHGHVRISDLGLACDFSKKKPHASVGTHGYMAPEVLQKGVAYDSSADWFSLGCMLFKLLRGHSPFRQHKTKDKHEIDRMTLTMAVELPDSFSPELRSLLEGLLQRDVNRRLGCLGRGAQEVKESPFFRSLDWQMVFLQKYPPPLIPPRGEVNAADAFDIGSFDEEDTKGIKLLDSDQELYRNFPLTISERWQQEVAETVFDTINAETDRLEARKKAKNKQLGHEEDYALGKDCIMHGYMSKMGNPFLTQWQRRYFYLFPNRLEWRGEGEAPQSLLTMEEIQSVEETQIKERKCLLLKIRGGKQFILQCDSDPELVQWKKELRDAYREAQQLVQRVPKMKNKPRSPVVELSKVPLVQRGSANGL
Procedure: as §1, §2, §3
The test procedure was as follows:
• 50 mM HEPES, pH 7.5 • 10 mM MgCl2 • 100 μM activated sodium orthovanadate • 0.01% CHAPS • 0.1% BSA • 1 mM DTT (added fresh daily) 10× Assay Buffer Stock: • 500 mM HEPES, pH 7.5 • 100 mM MgCl2 • 1 mM activated sodium orthovanadate • 0.1% CHAPS • 1% BSA (leave out for 10× compound dilution buffer) Final Assay Conditions: • 50 μM test compound • 20 μM casein • 10 μM ATP • 50 nM hGRK2 • 4.5% DMSO • 90-120 minute incubation
Stopped by addition of 30 μl 3×-diluted Kinase-Glo reagent containing 0.01% trypan blue. Counted on FUSION plate reader.
Compound Dilution and Transfer
Prepare sufficient buffer containing 40% DMSO to add 20 μl/well to the number of plates being assayed. This buffer should not contain BSA because it will precipitate with addition of 40% DMSO. (EXAMPLE: To make 3000 ml compound dilution buffer: 1200 ml DMSO, 180 ml 10× compound dilution buffer, 1615 ml ultrapure water, 3 ml 1M DTT.).
Using Multidrop, add 20 μl of compound dilution buffer to all wells of the 384-well daughter plate (add 1 μl DMSO to control wells). This will result in a daughter plate which contains 21 μl of ˜500 μM test compound.
Using the PlateTrak, transfer 5 μl of the test compounds to a 384-well, non-binding, white microtiter plate.
Prepare sufficient volume of buffer (with BSA and 1 mM DTT) containing 125 nM GRK2 and 25 μM ATP. (Example: To 219 ml of buffer was added 550 μl 10 mM ATP and 350 μl 79 μM GRK2).
Using Multidrop, add 20 μl of GRK2/ATP mixture to all wells of the microtiter plate.
Prepare sufficient volume of buffer (with BSA and 1 mM DTT) containing 40 μM casein. (EXAMPLE: To 211 ml buffer add 8.8 ml 1 mM casein)
Using Multidrop, add 25 μl to columns 1 through 23 of the microtiter plate. Add 25 μl of complete buffer to column 24 (blanks).
Mix reaction gently by tapping (Multidrop addition of casein does a decent job of mixing), stack plates and incubate at room temperature for between 90 and 120 minutes. Assay progression can be tracked in a separate plate if desired. Target 20-30% ATP consumption. Try to avoid exceeding 40% consumption as kinetics might become non-linear due to substrate (ATP) depletion.
Addition of Kinase-Glo Reagents
The Kinase-Glo reagent can be diluted 3-fold with no loss of data quality in this assay. Additionally, since the library contains many colored compounds which will quench the light emitted from the well resulting in a false negative (kinase inhibitors result in less ATP consumption thus more light emitted), the entire reaction is subject to intentional quench to override this effect. This intentional quench is accomplished by the addition of 0.01% trypan blue to the Kinase-Glo reagents. (EXAMPLE: 100 ml 1× Kinase-Glo reagents (prepared according to product insert), 200 ml assay buffer, 7.5 ml 0.4% trypan blue.
Using Multidrop, add 30 μl to all wells of the assay plate.
Count on FUSION plate reader in luminescence mode.

GRK-5 = GRK-5 (Homo sapiens, UniProt P34947); assay: luciferase-based biochemical kinase inhibition assay, GRK-5; details: same luciferase assay; read-out: GRK-5 inhibition, Ki class
Sequence of GRK-5 (P34947 whole entry, species assumed): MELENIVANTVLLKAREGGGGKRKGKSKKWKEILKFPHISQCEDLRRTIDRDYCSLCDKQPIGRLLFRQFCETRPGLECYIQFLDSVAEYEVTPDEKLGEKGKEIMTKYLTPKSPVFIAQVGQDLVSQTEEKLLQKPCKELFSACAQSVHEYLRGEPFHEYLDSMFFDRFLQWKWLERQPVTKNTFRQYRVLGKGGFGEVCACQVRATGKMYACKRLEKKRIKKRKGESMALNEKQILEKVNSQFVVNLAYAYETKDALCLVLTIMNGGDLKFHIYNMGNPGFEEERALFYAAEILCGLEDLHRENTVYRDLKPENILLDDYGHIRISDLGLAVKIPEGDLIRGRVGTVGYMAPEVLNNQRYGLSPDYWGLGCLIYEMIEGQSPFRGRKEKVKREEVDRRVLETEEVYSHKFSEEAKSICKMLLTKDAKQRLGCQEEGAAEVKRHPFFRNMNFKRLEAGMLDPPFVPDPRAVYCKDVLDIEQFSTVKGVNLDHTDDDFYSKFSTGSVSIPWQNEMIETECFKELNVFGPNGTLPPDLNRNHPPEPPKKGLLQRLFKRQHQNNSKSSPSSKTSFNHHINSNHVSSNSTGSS
Procedure: The inhibition of G-protein-coupled receptor kinases including hGRK-2 was determined for the hydrazide compounds using a biochemical assay. […] The inhibition of GRK-3, GRK-5 and GRK-6 was also determined using the same assay for some of the hydrazide derivatives.
as §2, §3

Row | Compound | Ki (GRK-3) | Ki (hGRK-2) | Ki (GRK-5)
1 | O=C(CNc1cccc(Cl)c1)N/N=C/c1c(Cl)cncc1Cl [Example 1, (3-Chloro-phenylamino)-acetic acid [1-(3,5-dichloro-pyridin-4-yl)-meth-(E)-ylidene]-hydrazide] | 1 to 10 µM | 1 to 10 µM | 1 to 10 µM
2 | O=C(CNc1cccc(F)c1)N/N=C/c1c(Cl)cncc1Cl [Example 4, (3-Fluoro-phenylamino)-acetic acid [1-(3,5-dichloro-pyridin-4-yl)-meth-(E)-ylidene]-hydrazide] | 1 to 10 µM | 0.1 to 1 µM | 1 to 10 µM
3 | CSc1cccc(NCC(=O)N/N=C/c2c(Cl)cncc2Cl)c1 [Example 10, (3-Methylsulfanyl-phenylamino)-acetic acid [1-(3,5-dichloro-pyridin-4-yl)-meth-(E)-ylidene]-hydrazide] | 0.1 to 1 µM | 0.1 to 1 µM | 1 to 10 µM
4 | CCOc1cccc(NCC(=O)N/N=C/c2c(Cl)cncc2Cl)c1 [Example 21, (3-Ethoxy-phenylamino)-acetic acid [1-(3,5-dichloro-pyridin-4-yl)-meth-(E)-ylidene]-hydrazide] | > 10 µM | 0.1 to 1 µM | > 10 µM
5 | NS(=O)(=O)c1cccc(NCC(=O)N/N=C/c2c(Cl)cncc2Cl)c1 [Example 22, 3-{[1-(3,5-Dichloro-pyridin-4-yl)-meth-(E)-ylidene-hydrazinocarbonylmethyl]-amino}-benzenesulfonamide] | 1 to 10 µM | 0.1 to 1 µM | 1 to 10 µM
6 | O=C(CNc1cccc(Cl)c1)N/N=C/c1ccncc1 [Example 37, (3-Chloro-phenylamino)-acetic acid [1-pyridin-4-yl-meth-(E)-ylidene]-hydrazide] | 1 to 10 µM | 0.1 to 1 µM | > 10 µM
7 | O=C(CNc1cccc(F)c1)N/N=C/c1ccncc1 [Example 40, (3-Fluoro-phenylamino)-acetic acid [1-pyridin-4-yl-meth-(E)-ylidene]-hydrazide] | 1 to 10 µM | 0.1 to 1 µM | > 10 µM
8 | O=C(CNc1cccc(Oc2ccc(F)c(F)c2)c1)N/N=C/c1ccncc1 [Example 83, [3-(3,4-Difluoro-phenoxy)-phenylamino]-acetic acid [1-pyridin-4-yl-meth-(E)-ylidene]-hydrazide] | – | 0.1 to 1 µM | –
9 | O=C(CNc1cccc(Oc2ccc(F)cc2F)c1)N/N=C/c1ccncc1 [Example 84, [3-(2,4-Difluoro-phenoxy)-phenylamino]-acetic acid [1-pyridin-4-yl-meth-(E)-ylidene]-hydrazide] | – | 0.01 to 0.1 µM | –
10 | O=C(CNc1cccc(Oc2cccnc2)c1)N/N=C/c1ccncc1 [Example 86, [3-(Pyridin-3-yloxy)-phenylamino]-acetic acid [1-pyridin-4-yl-meth-(E)-ylidene]-hydrazide] | – | 0.1 to 1 µM | –
11 | O=C(CNc1cccc(Cl)c1)N/N=C/c1ccnc2ccccc12 [Example 91, (3-Chloro-phenylamino)-acetic acid [1-quinolin-4-yl-meth-(E)-ylidene]-hydrazide] | – | > 10 µM | –
12 | Cn1cncc1/C=N/NC(=O)CNc1cccc(Cl)c1 [Example 92, (3-Chloro-phenylamino)-acetic acid [1-(3-methyl-3H-imidazol-4-yl)-meth-(E)-ylidene]-hydrazide] | – | > 10 µM | –
13 | O=C(CNc1cccc(Cl)c1)N/N=C/c1ccsc1 [Example 93, (3-Chloro-phenylamino)-acetic acid [1-thiophen-3-yl-meth-(E)-ylidene]-hydrazide] | – | > 10 µM | –
14 | O=C(CNc1cccc(Cl)c1)N/N=C/c1ccoc1 [Example 94, (3-Chloro-phenylamino)-acetic acid [1-furan-3-yl-meth-(E)-ylidene]-hydrazide] | – | 1 to 10 µM | –
15 | O=C(CNc1cccc(Cl)c1)NNCc1ccncc1 [Example 95, (3-Chloro-phenylamino)-acetic acid N′-pyridin-4-ylmethyl-hydrazide] | – | > 10 µM | –
16 | O=C(CNc1cccc(C(=O)Nc2ccccc2)c1)N/N=C/c1ccncc1 [Example 96, N-Phenyl-3-{[1-pyridin-4-yl-meth-(E)-ylidene-hydrazinocarbonylmethyl]-amino}-benzamide] | 0.01 to 0.1 µM | 0.1 to 1 µM | –
17 | CC(Nc1cccc(Oc2ccccc2)c1)C(=O)N/N=C/c1c(Cl)cncc1Cl (centres unmarked) [Example 98, 2-(3-Phenoxy-phenylamino)-propionic acid [1-(3,5-dichloro-pyridin-4-yl)-meth-(E)-ylidene]-hydrazide] | – | > 10 µM | –
18 | CC(Nc1cccc(Oc2ccccc2)c1)C(=O)N/N=C/c1ccncc1 (centres unmarked) [Example 99, 2-(3-phenoxy-phenylamino)-propionic acid [1-pyridin-4-yl-meth-(E)-ylidene]-hydrazide] | – | > 10 µM | –
19 | COc1cc(NCC(=O)N/N=C/c2ccncc2)cc(OC)c1 [Example 100, (3,5-Dimethoxy-phenylamino)-acetic acid [1-pyridin-4-yl-meth-(E)-ylidene]-hydrazide] | – | > 10 µM | –
20 | Dimethyl-carbamic acid 3-{[1-pyridin-4-yl-meth-(E)-ylidene-hydrazinocarbonyl-methyl]-amino}-phenyl ester [Example 101] | – | > 10 µM | –
